Results published in ChEMBL document CHEMBL5705895, “Species comparison and pharmacological characterization of human, monkey, rat, and mouse TRPA1 channels” (J Pharmacol Exp Ther, 2012).
Active and inactive are the calls of the source. No cut-off for these calls is given here.

Columns and labels:
Format in all cases: cell-based
[1] = target: T1, Transient receptor potential cation channel subfamily A member 1 (Homo sapiens, UniProt O75762); experiment: Antagonist activity at full length human TRPA1 transfected in HEK293F cells assessed as blockade of MO-induced TRPA1 channel activation by measuring Ca2+ influx in presence of 30 uM MO by FLIPR calcium assay
T1 sequence (O75762 whole entry): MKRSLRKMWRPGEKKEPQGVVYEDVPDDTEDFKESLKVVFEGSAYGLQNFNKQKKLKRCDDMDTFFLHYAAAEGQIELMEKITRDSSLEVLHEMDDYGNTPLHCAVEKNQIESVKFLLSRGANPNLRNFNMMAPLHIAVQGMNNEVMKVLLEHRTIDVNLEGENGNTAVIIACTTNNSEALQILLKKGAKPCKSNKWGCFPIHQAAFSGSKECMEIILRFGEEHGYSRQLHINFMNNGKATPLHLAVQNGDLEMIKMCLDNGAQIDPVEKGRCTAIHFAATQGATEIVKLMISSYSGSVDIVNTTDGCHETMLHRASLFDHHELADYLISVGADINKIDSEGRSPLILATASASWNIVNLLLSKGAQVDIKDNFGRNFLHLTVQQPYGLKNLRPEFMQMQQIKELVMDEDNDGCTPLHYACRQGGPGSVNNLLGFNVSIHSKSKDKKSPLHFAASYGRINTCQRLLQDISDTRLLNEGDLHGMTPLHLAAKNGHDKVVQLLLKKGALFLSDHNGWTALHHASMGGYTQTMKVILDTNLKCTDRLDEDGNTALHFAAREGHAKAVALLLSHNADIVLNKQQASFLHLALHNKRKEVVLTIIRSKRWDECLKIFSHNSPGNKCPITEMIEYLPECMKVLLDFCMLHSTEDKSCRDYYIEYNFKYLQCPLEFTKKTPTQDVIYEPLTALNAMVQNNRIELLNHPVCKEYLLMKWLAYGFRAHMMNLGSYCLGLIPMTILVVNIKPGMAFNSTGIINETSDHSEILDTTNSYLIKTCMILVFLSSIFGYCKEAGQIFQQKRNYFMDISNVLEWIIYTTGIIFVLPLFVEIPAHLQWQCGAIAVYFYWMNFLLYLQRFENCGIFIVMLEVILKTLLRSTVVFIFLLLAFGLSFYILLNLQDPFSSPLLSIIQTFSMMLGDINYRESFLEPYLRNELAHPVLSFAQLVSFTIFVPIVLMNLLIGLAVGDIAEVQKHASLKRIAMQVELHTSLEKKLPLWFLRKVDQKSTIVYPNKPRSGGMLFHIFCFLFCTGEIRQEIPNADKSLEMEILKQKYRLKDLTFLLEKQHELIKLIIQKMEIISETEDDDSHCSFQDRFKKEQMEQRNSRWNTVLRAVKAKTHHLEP

[2] = target: T2, Transient receptor potential cation channel subfamily A member 1 (Macaca mulatta, UniProt A0A1D5QMT1); experiment: Antagonist activity at full length rhesus monkey TRPA1 transfected in HEK293F cells assessed as blockade of MO-induced TRPA1 channel activation by measuring Ca2+ influx in presence of 120 uM MO by FLIPR calcium assay
T2 sequence (A0A1D5QMT1 whole entry): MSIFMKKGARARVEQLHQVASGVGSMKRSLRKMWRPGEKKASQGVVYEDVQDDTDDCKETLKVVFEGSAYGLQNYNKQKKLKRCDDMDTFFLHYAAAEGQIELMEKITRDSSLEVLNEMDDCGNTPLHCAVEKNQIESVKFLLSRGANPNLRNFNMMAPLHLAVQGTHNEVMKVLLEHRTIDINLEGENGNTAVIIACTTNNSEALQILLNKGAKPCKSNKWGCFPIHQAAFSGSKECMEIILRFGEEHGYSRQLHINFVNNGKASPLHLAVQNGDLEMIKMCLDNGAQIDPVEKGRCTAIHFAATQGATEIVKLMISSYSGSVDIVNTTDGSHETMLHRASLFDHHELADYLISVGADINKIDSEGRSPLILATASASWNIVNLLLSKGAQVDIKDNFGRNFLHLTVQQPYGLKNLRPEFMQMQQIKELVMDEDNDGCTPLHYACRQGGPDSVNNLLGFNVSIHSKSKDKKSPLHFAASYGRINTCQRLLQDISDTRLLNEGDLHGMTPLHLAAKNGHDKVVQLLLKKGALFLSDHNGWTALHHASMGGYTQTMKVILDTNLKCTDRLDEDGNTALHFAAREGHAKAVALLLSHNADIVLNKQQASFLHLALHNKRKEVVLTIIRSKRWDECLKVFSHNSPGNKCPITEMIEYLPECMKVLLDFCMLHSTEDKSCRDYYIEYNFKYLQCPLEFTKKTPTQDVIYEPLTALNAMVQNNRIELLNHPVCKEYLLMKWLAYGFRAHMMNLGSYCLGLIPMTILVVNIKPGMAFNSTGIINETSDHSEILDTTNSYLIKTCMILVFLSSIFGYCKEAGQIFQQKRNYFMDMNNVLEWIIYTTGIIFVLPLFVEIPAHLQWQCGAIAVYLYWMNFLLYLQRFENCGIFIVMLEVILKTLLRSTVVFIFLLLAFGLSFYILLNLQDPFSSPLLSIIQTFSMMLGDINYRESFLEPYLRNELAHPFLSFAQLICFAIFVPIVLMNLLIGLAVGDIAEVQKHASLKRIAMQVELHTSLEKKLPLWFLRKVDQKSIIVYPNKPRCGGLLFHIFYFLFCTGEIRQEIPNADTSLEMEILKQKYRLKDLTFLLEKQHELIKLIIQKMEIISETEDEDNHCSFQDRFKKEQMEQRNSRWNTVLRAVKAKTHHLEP

[3] = target: T3, Transient receptor potential cation channel subfamily A member 1 (Rattus norvegicus, UniProt Q6RI86); experiment: Antagonist activity at full length rat TRPA1 transfected in HEK293F cells assessed as blockade of MO-induced TRPA1 channel activation by measuring Ca2+ influx in presence of 30 uM MO by FLIPR calcium assay
T3 sequence (Q6RI86 whole entry): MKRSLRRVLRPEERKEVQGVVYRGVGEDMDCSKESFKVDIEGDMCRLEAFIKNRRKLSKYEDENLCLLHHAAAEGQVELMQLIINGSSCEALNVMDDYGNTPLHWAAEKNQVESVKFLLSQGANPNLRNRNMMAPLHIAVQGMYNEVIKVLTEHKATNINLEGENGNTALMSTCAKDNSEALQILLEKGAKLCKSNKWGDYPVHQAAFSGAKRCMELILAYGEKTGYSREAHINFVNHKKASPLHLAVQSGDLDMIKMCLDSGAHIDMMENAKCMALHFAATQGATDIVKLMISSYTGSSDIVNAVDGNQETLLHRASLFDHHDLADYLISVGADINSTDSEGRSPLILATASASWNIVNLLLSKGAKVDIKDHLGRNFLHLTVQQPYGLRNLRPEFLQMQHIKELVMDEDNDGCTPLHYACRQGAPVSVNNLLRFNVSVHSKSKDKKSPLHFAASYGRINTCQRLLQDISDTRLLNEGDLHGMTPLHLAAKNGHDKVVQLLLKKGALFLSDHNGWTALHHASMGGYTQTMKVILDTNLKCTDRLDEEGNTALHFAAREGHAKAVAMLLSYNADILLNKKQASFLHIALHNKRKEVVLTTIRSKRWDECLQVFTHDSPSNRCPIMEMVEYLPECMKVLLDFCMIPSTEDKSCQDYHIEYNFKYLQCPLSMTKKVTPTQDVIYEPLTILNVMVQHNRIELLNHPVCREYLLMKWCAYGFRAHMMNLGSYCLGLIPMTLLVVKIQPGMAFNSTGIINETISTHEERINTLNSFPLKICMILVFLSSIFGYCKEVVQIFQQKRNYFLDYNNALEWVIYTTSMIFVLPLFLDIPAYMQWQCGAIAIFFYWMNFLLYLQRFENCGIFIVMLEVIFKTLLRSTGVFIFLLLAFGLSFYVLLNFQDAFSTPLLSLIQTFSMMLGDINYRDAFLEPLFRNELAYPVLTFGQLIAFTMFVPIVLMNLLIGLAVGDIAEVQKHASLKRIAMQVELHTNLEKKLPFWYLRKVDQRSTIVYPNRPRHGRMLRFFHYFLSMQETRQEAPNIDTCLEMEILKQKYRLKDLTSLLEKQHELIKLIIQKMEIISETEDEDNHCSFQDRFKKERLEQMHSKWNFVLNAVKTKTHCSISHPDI

[4] = target: T4, Transient receptor potential cation channel subfamily A member 1 (Mus musculus, UniProt Q8BLA8); experiment: Antagonist activity at full length mouse TRPA1 transfected in HEK293F cells assessed as blockade of MO-induced TRPA1 channel activation by measuring Ca2+ influx in presence of 30 uM MO by FLIPR calcium assay
T4 sequence (Q8BLA8 whole entry): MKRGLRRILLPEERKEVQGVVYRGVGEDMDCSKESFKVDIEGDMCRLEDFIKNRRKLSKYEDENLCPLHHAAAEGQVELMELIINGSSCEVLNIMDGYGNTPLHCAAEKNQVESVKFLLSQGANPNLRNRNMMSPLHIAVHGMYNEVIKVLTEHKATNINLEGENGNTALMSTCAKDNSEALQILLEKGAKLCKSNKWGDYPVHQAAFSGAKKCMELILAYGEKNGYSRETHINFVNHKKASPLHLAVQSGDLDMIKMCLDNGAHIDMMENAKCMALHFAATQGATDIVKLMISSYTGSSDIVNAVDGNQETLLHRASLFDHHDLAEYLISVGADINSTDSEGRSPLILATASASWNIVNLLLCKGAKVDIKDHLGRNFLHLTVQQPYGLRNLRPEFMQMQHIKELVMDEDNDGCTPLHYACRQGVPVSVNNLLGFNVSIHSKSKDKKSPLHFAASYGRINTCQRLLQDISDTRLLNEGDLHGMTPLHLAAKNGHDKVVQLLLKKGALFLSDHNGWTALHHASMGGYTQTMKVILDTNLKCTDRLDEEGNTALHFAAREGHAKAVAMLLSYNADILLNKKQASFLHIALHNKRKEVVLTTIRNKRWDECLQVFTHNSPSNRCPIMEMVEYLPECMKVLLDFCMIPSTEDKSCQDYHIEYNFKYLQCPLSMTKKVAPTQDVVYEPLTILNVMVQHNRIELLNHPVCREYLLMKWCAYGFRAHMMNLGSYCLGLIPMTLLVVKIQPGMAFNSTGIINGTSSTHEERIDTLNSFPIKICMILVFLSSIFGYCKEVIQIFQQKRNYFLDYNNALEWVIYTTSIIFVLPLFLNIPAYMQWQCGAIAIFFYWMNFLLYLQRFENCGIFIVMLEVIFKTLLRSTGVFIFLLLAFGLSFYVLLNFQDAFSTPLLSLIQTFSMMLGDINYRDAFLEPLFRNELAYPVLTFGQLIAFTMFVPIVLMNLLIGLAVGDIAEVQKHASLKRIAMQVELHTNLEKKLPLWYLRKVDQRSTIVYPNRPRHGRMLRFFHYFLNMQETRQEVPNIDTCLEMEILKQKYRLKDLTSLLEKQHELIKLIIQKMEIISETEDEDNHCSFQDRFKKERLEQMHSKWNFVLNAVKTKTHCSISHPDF

[5] = target: Transient receptor potential cation channel subfamily A member 1 (Rattus norvegicus) (UniProt Q6RI86); experiment: Agonist activity at full length rat TRPA1 transfected in HEK293F cells assessed as increase in Ca2+ influx by FLIPR calcium assay relative to MO; conditions: filed as agonist
Transient receptor potential cation channel subfamily A member 1 (Rattus norvegicus), sequence (Q6RI86 whole entry): as the sequence (Q6RI86 whole entry) above

[6] = target: T3, Transient receptor potential cation channel subfamily A member 1; experiment: Agonist activity at full length rat TRPA1 transfected in HEK293F cells assessed as increase in Ca2+ influx by FLIPR calcium assay
[7] = target: T1, Transient receptor potential cation channel subfamily A member 1; experiment: Agonist activity at full length human TRPA1 transfected in HEK293F cells assessed as increase in Ca2+ influx by FLIPR calcium assay
[8] = target: T1, Transient receptor potential cation channel subfamily A member 1; experiment: Agonist activity at full length human TRPA1 transfected in HEK293F cells assessed as increase in Ca2+ influx by FLIPR calcium assay relative to MO; conditions: filed as agonist
[9] = target: T2, Transient receptor potential cation channel subfamily A member 1; experiment: Agonist activity at rhesus monkey TRPA1 transfected in HEK293F cells assessed as increase in Ca2+ influx by FLIPR calcium assay
[10] = target: T5, Transient receptor potential cation channel subfamily A member 1 (Macaca mulatta) (UniProt A0A1D5QMT1); experiment: Agonist activity at rhesus monkey TRPA1 transfected in HEK293F cells assessed as increase in Ca2+ influx by FLIPR calcium assay relative to MO; conditions: filed as agonist
T5 sequence (A0A1D5QMT1 as listed by the source): as the sequence (A0A1D5QMT1 whole entry) above

[11] = target: T4, Transient receptor potential cation channel subfamily A member 1; experiment: Agonist activity at full length mouse TRPA1 transfected in HEK293F cells assessed as increase in Ca2+ influx by FLIPR calcium assay
[12] = target: Transient receptor potential cation channel subfamily A member 1 (Mus musculus) (UniProt Q8BLA8); experiment: Agonist activity at full length mouse TRPA1 transfected in HEK293F cells assessed as increase in Ca2+ influx by FLIPR calcium assay relative to control; conditions: filed as agonist
Transient receptor potential cation channel subfamily A member 1 (Mus musculus), sequence (Q8BLA8 whole entry): as the sequence (Q8BLA8 whole entry) above

[13] = target: T2, Transient receptor potential cation channel subfamily A member 1; experiment: Activation of full length rhesus monkey TRPA1 transfected in HEK293F cells assessed as 1 mM of MO-induced current Blockade at -60 mV by whole-cell recording analysis
[14] = target: T2, Transient receptor potential cation channel subfamily A member 1; experiment: Activation of full length rhesus monkey TRPA1 transfected in HEK293F cells assessed as 120 uM of MO-induced current Blockade at -60 mV by whole-cell recording analysis
[15] = target: T1, Transient receptor potential cation channel subfamily A member 1; experiment: Antagonist activity at full length human TRPA1 transfected in HEK293F cells assessed as increase in Ca2+ influx by FLIPR calcium assay; conditions: filed as antagonist
[16] = target: T5, Transient receptor potential cation channel subfamily A member 1 (Macaca mulatta); experiment: Antagonist activity at rhesus monkey TRPA1 transfected in HEK293F cells assessed as increase in Ca2+ influx by FLIPR calcium assay; conditions: filed as antagonist
[17] = target: Transient receptor potential cation channel subfamily A member 1 (Rattus norvegicus) (UniProt Q6RI86); experiment: Agonist activity at full length rat TRPA1 transfected in HEK293F cells assessed as blockade of MO-induced TRPA1 channel activation by measuring Ca2+ influx in presence of 30 uM MO by FLIPR calcium assay; conditions: filed as agonist
[18] = target: Transient receptor potential cation channel subfamily A member 1 (Mus musculus) (UniProt Q8BLA8); experiment: Agonist activity at full length mouse TRPA1 transfected in HEK293F cells assessed as blockade of MO-induced TRPA1 channel activation by measuring Ca2+ influx in presence of 30 uM MO by FLIPR calcium assay; conditions: filed as agonist
[19] = target: T1, Transient receptor potential cation channel subfamily A member 1; experiment: Agonist activity at full length human TRPA1 transfected in HEK293F cells assessed as increase in Ca2+ influx in presence of 30 to 1000 uM MO by FLIPR calcium assay

SMILES | IC50 [1] | IC50 [2] | IC50 [3] | IC50 [4] | Emax [5] | EC50 [6] | EC50 [7] | Emax [8] | EC50 [9] | Emax [10] | EC50 [11] | Emax [12] | IC50 [13] | IC50 [14] | Activity [15] | Activity [16] | Activity [17] | Activity [18] | Activity [19]
CC(C)c1ccc(NC(=O)Cn2cnc3c2c(=O)n(C)c(=O)n3C)cc1 | 7.4 µM | 7.3 µM | 7.6 µM | 6.8 µM |  |  |  |  |  |  |  |  |  |  |  |  |  |  | 
O=C/C=C/c1ccccc1 |  |  |  |  | 89% | 5.4 µM | 12.5 µM | 81% | 23.9 µM | 84% | 3.4 µM | 71% |  |  |  |  |  |  | 
CCCCC/C=C/C=C1/C(=O)C=C[C@@H]1C/C=C\CCCC(=O)O |  |  |  |  | 70% | 19.9 µM | 40.4 µM | 75% | > 100 µM |  | 56.4 µM | 65% |  |  |  |  |  |  | 
CCCCCC(O)/C=C/C=O (configuration not stated) [4-HYDROXYNON-2-ENAL] |  |  |  |  | 76% | 6 µM | 9.9 µM | 80% | > 100 µM |  | 6.6 µM | 72% |  |  |  |  |  |  | 
CCC(=N\O)/C(C)=C/c1ccc(F)cc1 [A-079] |  | 0.6 µM | 0.33 µM | 0.75 µM |  |  |  |  |  |  |  |  | 1.63 µM | 0.6 µM |  |  |  |  | 
CC(=C\c1ccc(Cl)cc1)/C(C)=N/O [AP18 5] | 9.1 µM | 56.4 µM | 39.9 µM | 33 µM |  |  |  |  |  |  |  |  |  |  |  |  |  |  | 
Cn1c(=O)c2c(ncn2C)n(C)c1=O [CAFFEINE] | 988 µM | > 1000 µM |  |  | 44% | 95.9 µM |  |  |  |  | 61.8 µM | 52% |  |  | Active | Active | Active | Active | 
CC1CCC(C(C)C)C(O)C1 (configuration not stated) [MENTHOL] | > 1000 µM | > 1000 µM | 511 µM | 951 µM | 41% | 7.1 µM | 278 µM | 80% | > 300 µM |  | 5.2 µM | 40% |  |  |  |  |  |  | inactive
CC(C)=CCC/C(C)=C/CC/C(C)=C/CSc1ccccc1C(=O)O [SALIRASIB] |  |  |  |  | 89% | 102 µM | 4.9 µM | 106% | 167 µM | 112% | 85.5 µM | 105% |  |  |  |  |  |  | 
NC(=O)c1cccc(-c2cccc(OC(=O)NC3CCCCC3)c2)c1 [URB-597] |  |  |  |  | 72% | 129 µM | 7.5 µM | 85% | > 100 µM |  | 74.4 µM | 77% |  |  |  |  |  |  | 
